Drawing on ChEMBL document CHEMBL1158653, “Plant anticancer agents X. Isolation of camptothecin and 9-methoxycamptothecin from Ervatamia heyneana” (1979), this text covers T/C and EC50 for two molecules.

Common to all, as to type: functional
Assay [1] relates to P388. The assay can be described thus: Cytotoxicity against mouse P388 cells in in vivo based assay at 0.78 mg/kg relative to control.
Assay [2] relates to P388. As to the kind of experiment: Cytotoxicity against mouse P388 cells in in vivo based assay at 1.56 mg/kg relative to control.
The test system of assay [3] is P388. As to the kind of experiment: Cytotoxicity against mouse P388 cells. The conditions noted are these: read-out: ED50 (the source's name).
The test system of the next assay is KB. As to the kind of experiment: Cytotoxicity against human KB cells. The note with it: read-out: ED50 (the source's name).

≈ marks a conversion by molar mass, not a printed value.

As to `CC[C@@]1(O)C(=O)OCc2c1cc1n(c2=O)Cc2cc3ccccc3nc2-1` [CAMPTOTHECIN], the T/C – broadly, the ratio of treated to control – with P388 [1] amounted to 175%; in the assay with P388 [2], 181%.
As to `CC[C@@]1(O)C(=O)OCc2c1cc1n(c2=O)Cc2cc3c(OC)cccc3nc2-1`, the EC50 with P388 [3] stood at 0.53 µg/mL (≈ 1.4 µM); in the assay on KB it was 0.17 µg/mL (≈ 0.449 µM).
